Test results taken from patent US20230002334A1, “TRPM8 MODULATORS” (Givaudan SA, priority 2019, published 2023).
Where a name gives a salt, the structure may show the parent alone.

Molecular target: T1, hTRPM8 (Homo sapiens, UniProt Q7Z2W7)
T1 construct: expressed in transfected cells
Assay: Assay on TRPM8 modulators: calcium imaging (Fluo-4, Flexstation) in HEK293 cell line stably expressing hTRPM8
Assay type: cell-based
Conditions: HEK293 cells stably expressing hTRPM8, calcium influx, sigmoidal dose-response fit; read-out: EC50
Procedure: A HEK293 cell line stably expressing hTRPM8 was generated according to Klein et al., (Chem. Senses 36: 649-658, 2011) and receptor activation was monitored by calcium imaging in a Flexstation. For Ca-imaging assays of TRPM8 channel activation, cells were seeded on day 0 at a density of 12000 cells per well in Dulbecco's modified Eagle medium (DMEM) containing 9% foetal bovine serum in black, clear bottom 96-well plates that had been coated with 0.001% polyethyleneimine (molecular weight=60 000, Acros Organics). On day 2, agonists were evaluated via calcium imaging using Fluo-4. Briefly, growth medium was discarded, and the cells were incubated in the dark for 1 h at 37° C. in 50 μL loading buffer consisting of 2.7 μM Fluo-4 AM (Invitrogen) and […] probenecid (Sigma-Aldrich) in DMEM (without serum). After incubation, the plates were washed five times with 100 μL of assay buffer (in mM: 130 NaCl, 5 KCl, 10 HEPES, 2 CaCl2, and 10 glucose, pH7.4.) and further incubated in the dark at room temperature for 30 min. The cells were then washed five times with 100 μL assay buffer and then calcium influx to serial dilutions of inventive compounds were measured in a Flexstation 3 (Molecular Devices). Receptor activation was initiated following addition of 20 μl of a 10-fold concentrated ligand stock solution, which is also prepared in assay buffer. Fluorescence was continuously monitored for 15 seconds prior to ligand addition and for 105 seconds after ligand addition, for a total of 120 seconds. Maximal receptor activation in relation to solvent control and relative to 31.6 μM menthol is determined. Data from serial dilutions were processed with a KNIME workflow to fit a sigmoidal dose-response curve and to extrapolate EC50 values.

T1 sequence (Q7Z2W7 whole entry): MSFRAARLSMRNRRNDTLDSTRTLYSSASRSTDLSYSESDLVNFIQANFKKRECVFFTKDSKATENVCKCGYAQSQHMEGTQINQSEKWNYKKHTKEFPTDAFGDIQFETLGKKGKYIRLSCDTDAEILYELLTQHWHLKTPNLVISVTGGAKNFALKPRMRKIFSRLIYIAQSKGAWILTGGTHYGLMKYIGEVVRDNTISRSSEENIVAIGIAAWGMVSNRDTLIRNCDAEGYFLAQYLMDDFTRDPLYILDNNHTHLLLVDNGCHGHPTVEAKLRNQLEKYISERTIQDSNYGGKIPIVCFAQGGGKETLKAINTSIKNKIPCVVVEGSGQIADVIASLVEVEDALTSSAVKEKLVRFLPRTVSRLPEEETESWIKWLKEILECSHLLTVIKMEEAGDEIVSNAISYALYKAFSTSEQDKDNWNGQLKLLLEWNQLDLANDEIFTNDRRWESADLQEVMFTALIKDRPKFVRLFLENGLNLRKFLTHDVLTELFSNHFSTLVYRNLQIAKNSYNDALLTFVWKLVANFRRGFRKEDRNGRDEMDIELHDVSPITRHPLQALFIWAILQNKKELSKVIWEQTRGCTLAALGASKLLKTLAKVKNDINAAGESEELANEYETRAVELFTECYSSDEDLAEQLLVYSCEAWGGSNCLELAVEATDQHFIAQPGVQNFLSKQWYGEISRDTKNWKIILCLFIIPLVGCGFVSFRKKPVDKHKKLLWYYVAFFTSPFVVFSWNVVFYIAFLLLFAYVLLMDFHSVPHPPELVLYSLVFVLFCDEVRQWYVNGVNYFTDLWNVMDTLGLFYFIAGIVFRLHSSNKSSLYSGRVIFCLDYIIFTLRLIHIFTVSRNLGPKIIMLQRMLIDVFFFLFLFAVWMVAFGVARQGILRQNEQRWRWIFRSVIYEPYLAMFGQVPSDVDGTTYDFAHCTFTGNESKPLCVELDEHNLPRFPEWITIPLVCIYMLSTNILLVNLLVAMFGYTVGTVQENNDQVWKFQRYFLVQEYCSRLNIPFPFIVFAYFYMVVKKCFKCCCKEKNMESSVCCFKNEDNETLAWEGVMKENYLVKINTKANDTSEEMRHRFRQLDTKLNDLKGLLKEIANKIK

Row | SMILES | EC50 [nM]
1 | CC(C)=CC[C@]1(C)CC[C@@H]2[C@@H](C1)C(C)(C)ON2C (racemic) [Compound 113, rac-(3aR,5S,7aR)-1,3,3,5-tetramethyl-5-(3-methylbut-2-en-1-yl)octahydrobenzo[c]isoxazole] | 300 to 1000
2 | CC1CC(C)C2C(C1)C(C)(C)ON2C (stereo not drawn) [Compound 5, 1,3,3,5,7-pentamethyloctahydrobenzo[c]isoxazole hydrochloride] | 1000 to 35000
3 | COc1ccc(C2(C)CC(C)C3C(C2)C(C)(C)ON3C)c(OC)c1 (stereo not drawn) [Compound 16, 5-(2,4-dimethoxyphenyl)-1,3,3,5,7-pentamethyloctahydrobenzo[c]isoxazole] | 300 to 1000
4 | CC1CC(C)(c2ccccc2C#N)CC2C1N(C)OC2(C)C (stereo not drawn) [Compound 14, 2-(1,3,3,5,7-pentamethyloctahydrobenzo[c]isoxazol-5-yl)benzonitrile] | 50 to 300
5 | COc1cccc(C2(C)CC(C)C3C(C2)C(C)(C)ON3C)n1 (stereo not drawn) [Compound 18, 5-(6-methoxypyridin-2-yl)-1,3,3,5,7-pentamethyloctahydrobenzo[c]isoxazole] | 300 to 1000
6 | CN1OC(C)(C)[C@@H]2CCC(c3ccccc3)C[C@H]21 (mixture of isomers) [Compound 115, rac-(3aR,7aR)-1,3,3-trimethyl-6-phenyloctahydrobenzo[c]isoxazole] | 1000 to 35000
7 | CCCC[C@@H]1CC[C@@H]2[C@@H](C1)C(C)(C)ON2CC (racemic) [Compound 28, rac-(3aR,5R,7aR)-5-butyl-1-ethyl-3,3-dimethyloctahydrobenzo[c]isoxazole] | 300 to 1000
8 | CC1CC(C)C2C(C1)C(C)(C)ON2C(C)C (stereo not drawn) [Compound 11, 1-isopropyl-3,3,5,7-tetramethyloctahydrobenzo[c]isoxazol-1-ium chloride] | 300 to 1000
9 | C[C@@H]1C[C@@](C)(c2ccc(Cl)c(C#N)c2)C[C@H]2[C@H]1N(C)OC2(C)C (racemic) [Compound 122, rac-2-chloro-5-((3aS,5R,7R,7aS)-1,3,3,5,7-pentamethyloctahydrobenzo[c]isoxazol-5-yl)benzonitrile] | 1000 to 35000
10 | Cc1ccc([C@@]2(C)C[C@@H]3[C@@H]([C@@H](C)C2)N(C)OC3(C)C)s1 (racemic) [Compound 41, rac-(3aR,5R,7S,7aR)-1,3,3,5,7-pentamethyl-5-(5-methylthiophen-2-yl)octahydrobenzo[c]isoxazole] | 300 to 1000
11 | CSc1ccccc1[C@]1(C)C[C@@H](C)[C@@H]2[C@@H](C1)C(C)(C)ON2C (racemic) [Compound 31, rac-(3aR,5R,7R,7aR)-1,3,3,5,7-pentamethyl-5-(2-(methylthio)phenyl)octahydrobenzo[c]isoxazole] | 1000 to 35000

Next, values leading:

Row | EC50 [nM] | SMILES
12 | 50 to 300 | CCc1ccccc1[C@@]1(C)C[C@@H]2[C@@H]([C@@H](C)C1)N(C)OC2(C)C (racemic) [Compound 78, rac-(3aR,5R,7S,7aR)-5-(2-ethylphenyl)-1,3,3,5,7-pentamethyloctahydrobenzo[c]isoxazole]
13 | < 50 | COc1ccc(C#N)cc1[C@H]1C[C@@H]2[C@@H]([C@@H](C)C1)N(C(C)C)OC2(C)C (racemic) [Compound 128, rac-3-((3aR,5R,7S,7aR)-1-isopropyl-3,3,7-trimethyloctahydrobenzo[c]isoxazol-5-yl)-4-methoxybenzonitrile]
14 | 50 to 300 | Cc1cc(Cl)ccc1[C@H]1C[C@@H]2[C@@H]([C@@H](C)C1)N(C(C)C)OC2(C)C (racemic) [Compound 98, rac-(3aR,5R,7S,7aR)-5-(4-chloro-2-methylphenyl)-1-isopropyl-3,3,7-trimethyloctahydrobenzo[c]isoxazole]
15 | 50 to 300 | Cc1cc(F)ccc1[C@H]1C[C@@H]2[C@@H]([C@@H](C)C1)N(C)OC2(C)C (racemic) [Compound 101, rac-(3aR,5R,7S,7aR)-5-(4-fluoro-2-methylphenyl)-1,3,3,7-tetramethyloctahydrobenzo[c]isoxazole]
16 | 300 to 1000 | CC(C)=CC[C@H]1C[C@@H]2[C@@H]([C@@H](C)C1)N(C(C)C)OC2(C)C (racemic) [Compound 62, rac-(3aR,5R,7S,7aR)-1-isopropyl-3,3,7-trimethyl-5-(3-methylbut-2-en-1-yl)octahydrobenzo[c]isoxazole]
17 | 300 to 1000 | COc1ccc(C#N)cc1[C@]1(C)C[C@@H](C)[C@@H]2[C@@H](C1)C(C)(C)ON2C (racemic) [Compound 132, rac-4-methoxy-3-((3aR,5R,7R,7aR)-1,3,3,5,7-pentamethyloctahydrobenzo[c]isoxazol-5-yl)benzonitrile]
18 | 50 to 300 | COc1cccc([C@@]2(C)C[C@@H]3[C@@H]([C@@H](C)C2)N(C)OC3(C)C)c1 (racemic) [Compound 94, rac-(3aR,5R,7S,7aR)-5-(3-methoxyphenyl)-1,3,3,5,7-pentamethyloctahydrobenzo[c]isoxazole]
19 | 50 to 300 | C[C@H]1C[C@@](C)(c2cccc(F)c2)C[C@@H]2[C@@H]1N(C)OC2(C)C (racemic) [Compound 92, rac-(3aR,5R,7S,7aR)-5-(3-fluorophenyl)-1,3,3,5,7-pentamethyloctahydrobenzo[c]isoxazole]
20 | 300 to 1000 | C[C@H]1C[C@@](C)(c2cc(F)cc(C(F)(F)F)c2)C[C@@H]2[C@@H]1N(C)OC2(C)C (racemic) [Compound 91, rac-(3aR,5R,7S,7aR)-5-(3-fluoro-5-(trifluoromethyl)phenyl)-1,3,3,5,7-pentamethyloctahydrobenzo[c]isoxazole]
21 | < 50 | CCN1OC(C)(C)[C@@H]2C[C@](C)(c3cc(C#N)ccc3C)C[C@H](C)[C@H]21 (racemic) [Compound 125, rac-3-((3aR,5R,7S,7aR)-1-ethyl-3,3,5,7-tetramethyloctahydrobenzo[c]isoxazol-5-yl)-4-methylbenzonitrile]
22 | 1000 to 35000 | C[C@H]1C[C@@](C)(c2ccc(C(C)(C)C)cc2)C[C@@H]2[C@@H]1N(C)OC2(C)C (racemic) [Compound 95, rac-(3aR,5R,7S,7aR)-5-(4-(tert-butyl)phenyl)-1,3,3,5,7-pentamethyloctahydrobenzo[c]isoxazole]
23 | 300 to 1000 | C[C@H]1C[C@@](C)(c2ccc(F)cc2)C[C@H]2[C@H]1N(C)OC2(C)C (racemic) [Compound 119, rac-(3aS,5R,7S,7aS)-5-(4-fluorophenyl)-1,3,3,5,7-pentamethyloctahydrobenzo[c]isoxazole]
24 | 50 to 300 | COC(=O)c1ccc(C)c([C@@]2(C)C[C@@H]3[C@@H]([C@@H](C)C2)N(C)OC3(C)C)c1 (racemic) [Compound 137, rac-methyl 4-methyl-3-((3aR,5R,7S,7aR)-1,3,3,5,7-pentamethyloctahydrobenzo[c]isoxazol-5-yl)benzoate]
25 | 300 to 1000 | CCc1ccccc1[C@H]1C[C@@H]2[C@@H]([C@@H](C)C1)N(C(C)C)OC2(C)C (racemic) [Compound 80, rac-(3aR,5R,7S,7aR)-5-(2-ethylphenyl)-1-isopropyl-3,3,7-trimethyloctahydrobenzo[c]isoxazole]
26 | 300 to 1000 | C[C@H]1C[C@@](C)(c2ccc3c(c2)OCO3)C[C@@H]2[C@@H]1N(C)OC2(C)C (racemic) [Compound 109, rac-(3aR,5R,7S,7aR)-5-(benzo[d][1,3]dioxol-5-yl)-1,3,3,5,7-pentamethyloctahydrobenzo[c]isoxazole]
27 | 50 to 300 | C[C@H]1C[C@@](C)(c2ccc(C#N)cc2)C[C@@H]2[C@@H]1N(C)OC2(C)C (racemic) [Compound 131, rac-4-((3aR,5R,7S,7aR)-1,3,3,5,7-pentamethyloctahydrobenzo[c]isoxazol-5-yl)benzonitrile]
